Reference: patent publication US20100256086A1, “NON-HYDROLYZABLE NUCLEOSIDE DI- OR TRI-PHOSPHATE DERIVATIVES AND USES THEREOF” (priority 2007, published 2010)
“Also recorded” adds a separate entry of the source. Where two headings read alike, the source gives them in different places.

Legend:
turkey P2Y1 = molecular target: T1, turkey P2Y1 (Meleagris gallopavo, UniProt P49652); assay: Intracellular calcium measurement ([Ca2+]i, fura-2) in 1321N1 astrocytoma cells; assay type: cell-based
T1 construct: expressed in transfected cells
Experimental: Human 1321N1 astrocytoma cells stably expressing the turkey P2Y1, human P2Y2, human P2Y4 or rat P2Y6 were grown in Dulbecco's modified Eagle's medium containing 5% (v/v) fetal bovine serum, 100 units/ml penicillin, 100 μg/ml streptomycin and 500 μg/ml Geneticin (G-418, Life Technologies, Inc). Changes in the intracellular free calcium concentration, [Ca^2+]i were detected by dual-excitation spectrofluorometric analysis of cell suspensions loaded with fura-2, as previously described (Garrad et al., 1998; Grynkiewicz et al., 1985). Cells were assayed in 10 mM Hepes-buffered saline (pH 7.4) containing 1 mM CaCl2 and 1 mM MgCl2. The cells were pelleted in a microfuge and resuspended in 2 ml of buffer. Concentration-response data were analyzed with the Prism curve fitting program (GraphPAD Software, San Diego, Calif.). Three experiments were conducted on separate days for each P2Y receptor subtype.
The activities of compounds 2, 4B, 17, 18, 19A, 21 (isomers A and B) were examined at the G protein-coupled P2YRs, P2Y1, P2Y2, P2Y4 and P2Y6 expressed in human 1321N1 astrocytoma cells, based on intracellular calcium measurements, as described in Experimental above. In particular, the activity of compound 2, 4B and 19 was examined at P2Y1R, P2Y2R, P2Y4R and P2Y6R, and the activity of compounds 17, 18 and 21 was examined at P2Y1R only. The experiments were conducted by Prof. Gary A. Weisman from Columbia-Missouri University, Columbia, Mo., USA.

[1] = Chemical stability at pH 1.4 and 37° C. evaluated by HPLC; assay type: physicochemical; details: pH 1.4, 37° C., after 19 h
Experimental: The stability of 3 (isomer B) in the appropriate buffer solution (0.2 M HCl/KCl, pH=1.4) at 37° C. was evaluated by HPLC-electrospray ionization (ESI)MS for 5 days at 7-17 h intervals, and its hydrolysis rate, based on the HPLC integration changes of the 3B peak with time, was fit to a pseudo first-order exponential decay rate equation, as shown in FIGS. 2A-2B. In addition to 3B, degradation products 6, 7 and 8 were identified in the hydrolysis mixture, as depicted in Scheme 3. For instance, after 19 h, 50% of 3B was degraded giving rise to 37% of AMP-α-B and AMP-α-H (6 and 7, respectively. Both appear at the same retention time; however, MS enabled the identification of these compounds) and 13% adenosine (FIG. 2A). […]
The stability of 4 (isomer B) in the appropriate buffer solution (pH=1.4) at 37° C. was evaluated by HPLC to monitor possible dephosphorylation products. […] The solution was kept in an oil bath at 37° C. and its composition was analyzed by HPLC-MS, using a Gemini analytic column (5u C-18 110A, 150×4.60 mm) and gradient elution with Solvent System I (see Example 1) at 89:11 A:B for 15 min and then 82:18 to 74:26 A:B for 20 min at a flow rate of 1 ml/min. […] The hydrolysis rate of 4 was determined by measuring the change in the integration of the HPLC peaks of the degradation products, 6, 7 and 8, with time.

[2] = Stability in human blood serum, Method A; assay type: in vitro ADME; details: human blood serum and RPMI-1640, 37° C.
Experimental: Preparation of the Human Blood Serum: Blood Taken from Healthy Volunteers was obtained from a blood bank (Tel-Hashomer hospital, Israel), stored for 12 h at 4° C. and centrifuged in plastic tubes at 1500 g for 15 min at room temperature. The serum was separated and stored at −80° C.
The assay mixture, containing a 40 mM nucleotide derivative solution in deionized water (4.5 μl), human blood serum (180 μl) and RPMI-1640 (540 μl), was incubated at 37° C. for 1, 4, 8, 16, 24, 48, 72 and 96 h. The samples were then treated with 0.6 M of hydrochloric acid (430 μl), centrifuged for 2 min (13,000 g, 4° C.), neutralized by addition of 4 M of KOH, centrifuged for 2 min (13,000 g, 4° C.) and freeze-dried. The stability of the nucleotide was evaluated by HPLC for monitoring possible dephosphorylation products. The mixture was separated on a Gemini analytic column (5u C-18 110A, 150×4.60 mm) with gradient elution [0.01 M KH2PO4 pH=4.5 (A)/acetonitrile (B), 100:0→60:40, A:B, 20 min for 2, 3A and 3B; 100:0→95:5, A:B, 10 min for ATP] and flow rate of 1 ml/min. The hydrolysis rate was determined by measuring the change in the integration of the respective HPLC peaks with time.

[3] = molecular target: T2, calf intestine alkaline phosphatase (Bos taurus, UniProt P19111); assay: Enzymatic stability to alkaline phosphatase; assay type: in vitro ADME; details: 37° C., as in Example 6
T2 construct: purchased Fermentas Inc., Glen Burnie, Md
Experimental: Enzyme activity was measured by the release of p-nitrophenol from the nucleotide derivatives using a UV-vis spectrophotometer at 405 nm. Relative activity and resistance of nucleotides to enzymatic hydrolysis were determined at 37° C. Briefly, 32.5 μl of nucleotide derivative (77 μg/ml in 0.1 M Tris-HCl and 0.1 M MgCl2, pH 7.5) and 6 μl of deionized water were incubated with calf intestine alkaline phosphatase (Fermentas Inc., Glen Burnie, Md., 1 unit/μl, 6.25 μl at 37° C. final pH=9.8). After 30 min, the reaction was stopped by incubation at 80° C. for 30 min. The stability of the nucleotide derivative was evaluated by HPLC to monitor possible dephosphorylation products. The mixture was separated on a Gemini analytic column (5u C-18 110A, 150×4.60 mm) using gradient elution with Solvent System I (see Example 1) at 90:10 to 70:30 A:B for 3A and 3B, and 82:18 to 50:50 for 4A, 4B and 2 over 20 min and at a flow rate of 1 ml/min.

rP2Y1R = molecular target: T3, rP2Y1R (Rattus norvegicus, UniProt P49651); details: HEK293 cells expressing rP2Y1R, Ca2+ mobilization; cited from earlier work
T3 construct: host or cells: HEK293 cells

[4] = Glucose challenge in cannulated Wistar rats (insulin secretagogue efficacy); assay type: in vivo, rat; details: starved Wistar rats
Excerpt: The objective of this experiment is to study in vivo the efficacy of the compounds of the present invention as insulin secretion enhancing molecules, following a single oral gavage (per os) administration of glucose to cannulated Wister rats, by measuring the blood glucose and insulin levels following administration of the tested compound to the cannulated rats intra venues through the cannule.
A total of about 40 healthy 10-13 week old Wister rats are used. Animals are acclimatized for at least 4 days prior to commencement of treatment and are fed with non-medicated commercial sterile rodent food ad libitum. Drinking tap water are available ad libitum.
About 48 hours prior treatment, rats are weighted and a population uniform in weight (about 90% of the animals) is taken for cannulation. In particular, animals are anesthetized by 2.5% isofluran 97.5% dry air inhalation, and a P52 cannula is surgically inserted and fixed in the jugular vein and flushed with 0.3-0.5 ml 5% heparinized saline after cannulation (and thereafter, immediately after each blood collection). In case a technical problem such as fixation or clotting arises with a rat's indwelling cannula, another rat is cannulated and replace the previously allocated rat in the study.
On the day of treatment, the cannule of each one of the rats is checked, the rats are weighed, and the glucose level of each one of the rats is checked via the tail vain. […]
Glucose and insulin levels are measured 30 minutes prior to glucose administration (and prior to glibenclamide administration in the case of the positive control group); immediately before and 5 minutes after glucose administration; 15 minutes after glucose administration, namely, 5 minutes after administration of the tested compound or saline (in the cases of the first and the negative control groups, respectively); and then 30, 45, 60 120 and 150 minutes after glucose administration. […]

T1 sequence (P49652 whole entry): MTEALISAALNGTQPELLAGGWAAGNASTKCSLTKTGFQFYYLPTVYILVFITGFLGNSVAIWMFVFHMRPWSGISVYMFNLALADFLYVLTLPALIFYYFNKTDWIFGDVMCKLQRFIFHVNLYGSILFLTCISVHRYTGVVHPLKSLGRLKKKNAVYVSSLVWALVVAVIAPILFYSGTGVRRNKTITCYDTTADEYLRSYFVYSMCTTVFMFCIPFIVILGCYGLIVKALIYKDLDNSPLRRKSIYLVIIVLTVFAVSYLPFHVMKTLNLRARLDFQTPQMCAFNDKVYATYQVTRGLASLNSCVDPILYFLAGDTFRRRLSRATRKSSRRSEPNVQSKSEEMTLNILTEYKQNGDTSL
T3 sequence (P49651 whole entry): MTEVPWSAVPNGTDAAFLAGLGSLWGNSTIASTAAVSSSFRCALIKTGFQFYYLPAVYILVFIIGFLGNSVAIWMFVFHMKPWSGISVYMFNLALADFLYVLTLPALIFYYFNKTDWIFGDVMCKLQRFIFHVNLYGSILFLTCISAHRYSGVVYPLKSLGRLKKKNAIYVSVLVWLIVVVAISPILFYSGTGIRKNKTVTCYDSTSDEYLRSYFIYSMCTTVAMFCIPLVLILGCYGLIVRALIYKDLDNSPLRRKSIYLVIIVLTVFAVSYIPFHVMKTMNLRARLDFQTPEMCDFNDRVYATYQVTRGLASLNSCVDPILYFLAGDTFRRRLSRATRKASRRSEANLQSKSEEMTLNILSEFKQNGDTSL
T2 sequence (P19111 20-506): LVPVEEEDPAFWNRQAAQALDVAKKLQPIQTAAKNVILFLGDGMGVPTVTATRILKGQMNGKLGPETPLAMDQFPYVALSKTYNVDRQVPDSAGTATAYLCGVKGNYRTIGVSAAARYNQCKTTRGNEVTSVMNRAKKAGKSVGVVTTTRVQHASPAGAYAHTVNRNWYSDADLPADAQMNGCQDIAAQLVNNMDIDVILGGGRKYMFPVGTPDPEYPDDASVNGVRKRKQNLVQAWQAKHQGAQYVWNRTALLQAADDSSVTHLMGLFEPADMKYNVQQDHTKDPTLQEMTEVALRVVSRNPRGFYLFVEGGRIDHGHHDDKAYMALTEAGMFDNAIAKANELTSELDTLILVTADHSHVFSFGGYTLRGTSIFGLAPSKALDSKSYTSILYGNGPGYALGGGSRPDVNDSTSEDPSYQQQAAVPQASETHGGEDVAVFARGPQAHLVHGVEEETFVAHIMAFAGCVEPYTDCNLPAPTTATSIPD

B[P@](=O)(OC[C@H]1O[C@@H](n2cnc3c(N)ncnc32)[C@H](O)[C@@H]1O)OP(=O)(O)CP(=O)(O)O (single isomer, unassigned) [Compound 3B, Adenosine-β,γ-CH2-5′-O-(1-boranotriphosphate)]
activity at P2Y1R, in words (turkey P2Y1): practically inactive | activities at the P2YRs tested (turkey P2Y1; P2Y1, P2Y2, P2Y4 and P2Y6 tested): insignificant activities | fraction degraded [1]: 50% | half-life in human blood serum [2]: 47.1 h

Nc1ncnc2c1ncn2[C@@H]1O[C@H](COP(=O)(O)OP(=O)(O)O)[C@@H](O)[C@H]1O [ADP, reference compound]
t1/2 to alkaline phosphatase [3]: about 4 h | half-life in human blood serum: about 2 h

CSc1nc(N)c2ncn([C@@H]3O[C@H](COP(=O)(O)OP(=O)(O)OP(=O)(O)O)[C@@H](O)[C@H]3O)c2n1 [Compound 2-MeS-ATP, 2-MeS-ATP]
EC50 (rP2Y1R): 1 nM

[BH3-]P(=O)(OC[C@H]1O[C@@H](n2cnc3c(N)nc(SC)nc32)[C@H](O)[C@@H]1O)OP(=O)([O-])[O-].[Na+].[Na+].[Na+] (stereo partly drawn) [Compound 19, 2MeS-adenosine-5′-O-(Pα-borano) diphosphate]
glucose levels after glucose challenge relative to saline treated rats ([4]; 2.5 mg/kg IV 10 minutes after glucose challenge, preliminary study): reduced the glucose levels; also recorded: reduces glycemia

COc1ccc(Cl)cc1C(=O)NCCc1ccc(S(=O)(=O)NC(=O)NC2CCCCC2)cc1 [glibenclamide, reference compound]
glucose levels after glucose challenge relative to saline treated rats ([4]; 0.25 mg/kg per os 30 minutes prior to glucose, positive control): reduced the glucose levels
